# According to patent publication US12215140B2, “Method of stabilizing protein contained in specimen and solution for stabilizing protein contained in specimen” (EIKEN KAGAKU KABUSHIKI KAISHA, priority 2018, dated 2025):
# Target: hemoglobin (Homo sapiens, UniProt P68871+P69905)
# Test: Stability of hemoglobin in samples preserved at 37° C. in preservation solution containing no haptoglobin, Hb measured by latex agglutination method (Examples 8, 9 and Table 10)
# Protocol: Preservation solutions were prepared with the addition of 40 mmol/L HEPES (pH 6.8), 0.1% BSA, 0.1% NaN3, and 0 to 2.5 mmol/L phenylboronic acid. […] Samples obtained by adding hemoglobin-added fecal specimens to the preservation solutions so that the fecal concentration would be 0.5% were preserved at 37° C. for 0, 16, 38, and 62 hours. The fecal specimens were added with hemoglobin having an amount such that the hemoglobin concentration in the samples would be about 300 μg/L. Instead of the fecal specimens to which hemoglobin was added, samples containing no fecal specimens, in which hemoglobin was added to the preservation solutions so that the hemoglobin concentration in the samples would be 300 μg/L, were similarly preserved. The hemoglobin (Hb) concentrations (μg/L) in the preserved samples were measured by the latex agglutination method using the same measurement reagent and measurement device as in Example 1.
# The concentration of phenylboronic acid in the preservation solutions of Example 8 was fixed to 0.5 mmol/L, preservation solutions to which sorbitol or sucrose was further added at 10 to 250 mmol/L or trehalose, glucose, fructose, or mannitol was further added at 50 to 100 mmol/L were prepared, and testing was conducted in the same manner as in Example 8. In addition, preservation solutions to which the phenylboronic acid was added but no sugar was added were prepared, preservation solutions to which the phenylboronic acid and sugar were not added were prepared for the comparative examples, and testing was conducted in the same manner.
# For comparative examples, preservation solutions to which no arylboronic acid was added were prepared, and testing was conducted in the same manner.
# [1] = Feces 1, 0 h at 37° C., arylboronic acid 0.5 mmol/L, no sugar
# [2] = Feces 1, 16 h at 37° C., arylboronic acid 0.5 mmol/L, no sugar
# [3] = Feces 1, 38 h at 37° C., arylboronic acid 0.5 mmol/L, no sugar
# [4] = Feces 1, 62 h at 37° C., arylboronic acid 0.5 mmol/L, no sugar
# [5] = Feces 1, arylboronic acid 0.5 mmol/L, 0 h at 37° C.
# [6] = Feces 1, arylboronic acid 0.5 mmol/L, 16 h at 37° C.
# [7] = Feces 1, arylboronic acid 0.5 mmol/L, 38 h at 37° C.
# [8] = Feces 1, arylboronic acid 0.5 mmol/L, 62 h at 37° C.
# [9] = Feces 1, arylboronic acid 1 mmol/L, 0 h at 37° C.
# [10] = Feces 1, arylboronic acid 1 mmol/L, 16 h at 37° C.
# [11] = Feces 1, arylboronic acid 1 mmol/L, 38 h at 37° C.
# [12] = Feces 1, arylboronic acid 1 mmol/L, 62 h at 37° C.
# [13] = Feces 2, 0 h at 37° C., arylboronic acid 0.5 mmol/L, no sugar
# [14] = Feces 2, 16 h at 37° C., arylboronic acid 0.5 mmol/L, no sugar
# [15] = Feces 2, 38 h at 37° C., arylboronic acid 0.5 mmol/L, no sugar
# [16] = Feces 2, 62 h at 37° C., arylboronic acid 0.5 mmol/L, no sugar
# [17] = Feces 2, arylboronic acid 0.5 mmol/L, 0 h at 37° C.
# [18] = Feces 2, arylboronic acid 0.5 mmol/L, 16 h at 37° C.
# [19] = Feces 2, arylboronic acid 0.5 mmol/L, 38 h at 37° C.
# [20] = Feces 2, arylboronic acid 0.5 mmol/L, 62 h at 37° C.
# [21] = Feces 2, arylboronic acid 1 mmol/L, 0 h at 37° C.
# [22] = Feces 2, arylboronic acid 1 mmol/L, 16 h at 37° C.
# [23] = Feces 2, arylboronic acid 1 mmol/L, 38 h at 37° C.
# [24] = Feces 2, arylboronic acid 1 mmol/L, 62 h at 37° C.
# [25] = Feces 3, 0 h at 37° C., arylboronic acid 0.5 mmol/L, no sugar
# [26] = Feces 3, 16 h at 37° C., arylboronic acid 0.5 mmol/L, no sugar
# [27] = Feces 3, 38 h at 37° C., arylboronic acid 0.5 mmol/L, no sugar
# [28] = Feces 3, 62 h at 37° C., arylboronic acid 0.5 mmol/L, no sugar
# [29] = Feces 3, arylboronic acid 0.5 mmol/L, 0 h at 37° C.
# [30] = Feces 3, arylboronic acid 0.5 mmol/L, 16 h at 37° C.
# [31] = Feces 3, arylboronic acid 0.5 mmol/L, 38 h at 37° C.
# [32] = Feces 3, arylboronic acid 0.5 mmol/L, 62 h at 37° C.
# [33] = Feces 3, arylboronic acid 1 mmol/L, 0 h at 37° C.
# [34] = Feces 3, arylboronic acid 1 mmol/L, 16 h at 37° C.
# [35] = Feces 3, arylboronic acid 1 mmol/L, 38 h at 37° C.
# [36] = Feces 3, arylboronic acid 1 mmol/L, 62 h at 37° C.
# [37] = No feces, 0 h at 37° C., arylboronic acid 0.5 mmol/L, no sugar
# [38] = No feces, 16 h at 37° C., arylboronic acid 0.5 mmol/L, no sugar
# [39] = No feces, 38 h at 37° C., arylboronic acid 0.5 mmol/L, no sugar
# [40] = No feces, 62 h at 37° C., arylboronic acid 0.5 mmol/L, no sugar
# [41] = No feces, arylboronic acid 0.5 mmol/L, 0 h at 37° C.
# [42] = No feces, arylboronic acid 0.5 mmol/L, 16 h at 37° C.
# [43] = No feces, arylboronic acid 0.5 mmol/L, 38 h at 37° C.
# [44] = No feces, arylboronic acid 0.5 mmol/L, 62 h at 37° C.
# [45] = No feces, arylboronic acid 1 mmol/L, 0 h at 37° C.
# [46] = No feces, arylboronic acid 1 mmol/L, 16 h at 37° C.
# [47] = No feces, arylboronic acid 1 mmol/L, 38 h at 37° C.
# [48] = No feces, arylboronic acid 1 mmol/L, 62 h at 37° C.
# Sequence of hemoglobin (P69905 2-142): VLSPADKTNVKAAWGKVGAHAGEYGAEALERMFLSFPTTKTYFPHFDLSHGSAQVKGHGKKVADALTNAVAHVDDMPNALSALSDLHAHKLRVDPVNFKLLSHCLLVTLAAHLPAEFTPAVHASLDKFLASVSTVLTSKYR
# Sequence of hemoglobin (P68871 2-147): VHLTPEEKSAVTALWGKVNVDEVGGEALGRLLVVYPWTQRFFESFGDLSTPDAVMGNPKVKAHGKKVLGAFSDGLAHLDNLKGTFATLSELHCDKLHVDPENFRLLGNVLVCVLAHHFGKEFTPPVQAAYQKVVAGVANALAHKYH
compound,measurement,setting,value
OB(O)c1ccccc1 [PBA],Hb concentration,[1],300 µg/L
same,Recovery ratio with respect to Hb after 0 days,[1],100%
same,Hb concentration,[2],174 µg/L
same,Recovery ratio with respect to Hb after 0 days,[2],58%
same,Hb concentration,[3],74 µg/L
same,Recovery ratio with respect to Hb after 0 days,[3],25%
same,Hb concentration,[4],17 µg/L
same,Recovery ratio with respect to Hb after 0 days,[4],6%
same,Hb concentration,[5],300 µg/L
same,Recovery ratio with respect to Hb after 0 days,[5],100%
same,Hb concentration,[6],174 µg/L
same,Recovery ratio with respect to Hb after 0 days,[6],58%
same,Hb concentration,[7],74 µg/L
same,Recovery ratio with respect to Hb after 0 days,[7],25%
same,Hb concentration,[8],17 µg/L
same,Recovery ratio with respect to Hb after 0 days,[8],6%
same,Hb concentration,[9],298 µg/L
same,Recovery ratio with respect to Hb after 0 days,[9],100%
same,Hb concentration,[10],182 µg/L
same,Recovery ratio with respect to Hb after 0 days,[10],61%
same,Hb concentration,[11],92 µg/L
same,Recovery ratio with respect to Hb after 0 days,[11],31%
same,Hb concentration,[12],30 µg/L
same,Recovery ratio with respect to Hb after 0 days,[12],10%
same,Hb concentration,[13],299 µg/L
same,Recovery ratio with respect to Hb after 0 days,[13],100%
same,Hb concentration,[14],103 µg/L
same,Recovery ratio with respect to Hb after 0 days,[14],34%
same,Hb concentration,[15],10 µg/L
same,Recovery ratio with respect to Hb after 0 days,[15],3%
same,Hb concentration,[16],0 µg/L
same,Recovery ratio with respect to Hb after 0 days,[16],0%
same,Hb concentration,[17],299 µg/L
same,Recovery ratio with respect to Hb after 0 days,[17],100%
same,Hb concentration,[18],103 µg/L
same,Recovery ratio with respect to Hb after 0 days,[18],34%
same,Hb concentration,[19],10 µg/L
same,Recovery ratio with respect to Hb after 0 days,[19],3%
same,Hb concentration,[20],0 µg/L
same,Recovery ratio with respect to Hb after 0 days,[20],0%
same,Hb concentration,[21],299 µg/L
same,Recovery ratio with respect to Hb after 0 days,[21],100%
same,Hb concentration,[22],119 µg/L
same,Recovery ratio with respect to Hb after 0 days,[22],40%
same,Hb concentration,[23],17 µg/L
same,Recovery ratio with respect to Hb after 0 days,[23],6%
same,Hb concentration,[24],0 µg/L
same,Recovery ratio with respect to Hb after 0 days,[24],0%
same,Hb concentration,[25],289 µg/L
same,Recovery ratio with respect to Hb after 0 days,[25],100%
same,Hb concentration,[26],92 µg/L
same,Recovery ratio with respect to Hb after 0 days,[26],32%
same,Hb concentration,[27],8 µg/L
same,Recovery ratio with respect to Hb after 0 days,[27],3%
same,Hb concentration,[28],0 µg/L
same,Recovery ratio with respect to Hb after 0 days,[28],0%
same,Hb concentration,[29],289 µg/L
same,Recovery ratio with respect to Hb after 0 days,[29],100%
same,Hb concentration,[30],92 µg/L
same,Recovery ratio with respect to Hb after 0 days,[30],32%
same,Hb concentration,[31],8 µg/L
same,Recovery ratio with respect to Hb after 0 days,[31],3%
same,Hb concentration,[32],0 µg/L
same,Recovery ratio with respect to Hb after 0 days,[32],0%
same,Hb concentration,[33],287 µg/L
same,Recovery ratio with respect to Hb after 0 days,[33],100%
same,Hb concentration,[34],112 µg/L
same,Recovery ratio with respect to Hb after 0 days,[34],39%
same,Hb concentration,[35],14 µg/L
same,Recovery ratio with respect to Hb after 0 days,[35],5%
same,Hb concentration,[36],0 µg/L
same,Recovery ratio with respect to Hb after 0 days,[36],0%
same,Hb concentration,[37],295 µg/L
same,Recovery ratio with respect to Hb after 0 days,[37],100%
same,Hb concentration,[38],284 µg/L
same,Recovery ratio with respect to Hb after 0 days,[38],96%
same,Hb concentration,[39],270 µg/L
same,Recovery ratio with respect to Hb after 0 days,[39],91%
same,Hb concentration,[40],263 µg/L
same,Recovery ratio with respect to Hb after 0 days,[40],89%
same,Hb concentration,[41],295 µg/L
same,Recovery ratio with respect to Hb after 0 days,[41],100%
same,Hb concentration,[42],284 µg/L
same,Recovery ratio with respect to Hb after 0 days,[42],96%
same,Hb concentration,[43],270 µg/L
same,Recovery ratio with respect to Hb after 0 days,[43],91%
same,Hb concentration,[44],263 µg/L
same,Recovery ratio with respect to Hb after 0 days,[44],89%
same,Hb concentration,[45],292 µg/L
same,Recovery ratio with respect to Hb after 0 days,[45],100%
same,Hb concentration,[46],276 µg/L
same,Recovery ratio with respect to Hb after 0 days,[46],95%
same,Hb concentration,[47],261 µg/L
same,Recovery ratio with respect to Hb after 0 days,[47],90%
same,Hb concentration,[48],259 µg/L
same,Recovery ratio with respect to Hb after 0 days,[48],89%
